Test system: paw edema induced by Naja naja venom phospholipase A2
Test: Phospholipase A2 Rat Paw Edema
Format: in vivo, Lewis rats
Conditions: 30 mg/kg ip, measured 2 hours after PLA2 injection

## CCCCCCCCCCCCCCCCCCOc1cc(OC(=O)C(c2ccccc2)c2ccccc2)cc(C(=O)O)c1 [Example 11, 3-(Octadecyloxy)-5-(2,2-diphenyl-1-oxoethoxy) benzoic acid]
  inhibition of edema (PLA2 rat paw edema): 29%
